How the values were obtained:
human SGLT1 = biological target: T1, human SGLT1 (Homo sapiens, UniProt P13866); experiment: SGLT1 assay: Na-dependent 14C-AMG uptake in CHO-K1 cells stably expressing human SGLT1; format: cell-based; details: for IC50: 500 μM AMG, 2 hours at 37° C.
T1 construct: expressed in transfected cells; host or cells: CHO-K1
T1 sequence (P13866 1-664): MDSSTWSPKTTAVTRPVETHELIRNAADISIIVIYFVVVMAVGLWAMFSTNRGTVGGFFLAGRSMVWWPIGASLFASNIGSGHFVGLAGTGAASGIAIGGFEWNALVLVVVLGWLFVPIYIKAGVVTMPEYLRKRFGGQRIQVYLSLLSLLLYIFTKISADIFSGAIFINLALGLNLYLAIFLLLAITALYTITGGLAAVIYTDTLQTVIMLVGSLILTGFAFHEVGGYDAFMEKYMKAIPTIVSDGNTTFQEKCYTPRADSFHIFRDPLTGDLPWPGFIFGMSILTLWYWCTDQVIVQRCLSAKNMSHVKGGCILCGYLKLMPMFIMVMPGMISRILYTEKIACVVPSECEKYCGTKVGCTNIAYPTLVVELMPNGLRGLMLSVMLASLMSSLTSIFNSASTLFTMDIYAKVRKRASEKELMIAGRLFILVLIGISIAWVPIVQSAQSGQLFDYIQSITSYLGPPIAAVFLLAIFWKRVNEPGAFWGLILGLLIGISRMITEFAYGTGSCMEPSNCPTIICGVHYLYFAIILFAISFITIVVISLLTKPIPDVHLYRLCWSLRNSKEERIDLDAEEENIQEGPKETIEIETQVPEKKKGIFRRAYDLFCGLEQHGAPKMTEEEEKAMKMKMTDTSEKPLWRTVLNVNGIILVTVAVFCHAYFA
Procedure, shortened: (§1)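 CHO-K1 cells stably expressing human SGLT1 or SGLT2, pretreated 24 h with 10 mM Na-butyrate, were exposed 10 min to compound (0.001-10 μM) in Na-containing HEPES/Tris buffer pH 7.4. Uptake of ^14C-AMG (500 μM final) ran 2 h at 37° C, then Na-dependent uptake was counted by scintillation.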

human SGLT2 = biological target: T2, human SGLT2 (Homo sapiens, UniProt P31639); experiment: SGLT2 assay: Na-dependent 14C-AMG uptake in CHO-K1 cells stably expressing human SGLT2; format: cell-based; details: for IC50: 500 μM AMG, 2 hours at 37° C.
T2 construct: expressed in transfected cells; host or cells: CHO-K1
T2 sequence (P31639 1-672): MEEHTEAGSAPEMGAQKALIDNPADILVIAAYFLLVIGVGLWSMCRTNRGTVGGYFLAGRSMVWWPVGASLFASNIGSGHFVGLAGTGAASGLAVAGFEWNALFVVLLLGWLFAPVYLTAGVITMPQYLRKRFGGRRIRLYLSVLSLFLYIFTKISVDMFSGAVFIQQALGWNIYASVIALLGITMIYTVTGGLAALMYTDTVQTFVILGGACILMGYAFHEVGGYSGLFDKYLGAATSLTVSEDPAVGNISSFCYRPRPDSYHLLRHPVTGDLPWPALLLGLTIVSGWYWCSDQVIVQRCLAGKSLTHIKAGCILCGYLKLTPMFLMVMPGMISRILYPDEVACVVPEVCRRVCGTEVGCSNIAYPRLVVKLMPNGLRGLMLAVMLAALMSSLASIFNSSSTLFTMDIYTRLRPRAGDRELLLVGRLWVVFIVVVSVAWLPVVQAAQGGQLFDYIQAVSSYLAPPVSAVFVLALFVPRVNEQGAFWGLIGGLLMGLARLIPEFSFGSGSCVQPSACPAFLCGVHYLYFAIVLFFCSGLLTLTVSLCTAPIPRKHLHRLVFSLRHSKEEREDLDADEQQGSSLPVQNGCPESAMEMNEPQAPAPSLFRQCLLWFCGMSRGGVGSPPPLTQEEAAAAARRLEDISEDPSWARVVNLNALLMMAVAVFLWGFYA
Procedure, shortened: as §1

## [2H]C([2H])(c1ccc2c(c1)CC2)c1cc([C@@H]2O[C@H](CO)[C@@H](O)[C@H](O)[C@H]2O)c(OC)cc1C [Compound 53, (2S,3R,4R,5S,6R)-2-(5-(dideuterium(1,2-dihydrocyclobutabenzen-4-yl)methyl)-2-methoxy-4-methylphenyl)-6-(hydroxymethyl)-tetrahydro-2H-pyran-3,4,6-triol]
Human SGLT1
  IC50: 80 nM
Human SGLT2
  IC50: 1 nM

## [2H]C([2H])(c1ccc2c(c1)CC2)c1cc([C@@H]2O[C@H](CO)[C@@H](O)[C@H](O)[C@H]2O)c(OC)cc1Cl [Compound 56, (2S,3R,4R,5S,6R)-2-(5-[bicyclo[4.2.0]octa-(6),2,4-trien-3-yl(dideuterium)methyl]-4-chloro-2-methoxyphenyl)-6-(hydroxymethyl)oxane-3,4,5-triol]
Human SGLT1
  IC50: 93 nM
Human SGLT2
  IC50: 2 nM

## [2H]C([2H])(c1ccc2c(c1)CC2)c1cc([C@@H]2O[C@H](CO)[C@@H](O)[C@H](O)[C@H]2O)ccc1CC [Compound 58, (2S,3R,4R,5S,6R)-2-(3-[bicyclo[4.2.0]octa-(6),2,4-trien-3-yl(dideuterium)methyl]-4-ethylphenyl)-6-(hydroxymethyl)oxane-3,4,5-triol]
Human SGLT1
  IC50: 25 nM
Human SGLT2
  IC50: 2 nM

## [2H]C([2H])(c1ccc2c(c1)CC2)c1cc([C@@H]2O[C@H](CO)[C@@H](O)[C@H](O)[C@H]2O)c(OC)cc1CC [Compound 60, (2S,3R,4R,5S,6R)-2-(5-(dideuterium(1,2-dihydrocyclobutabenzen-4-yl)methyl)-4-ethyl-2-methoxyphenyl)-6-(hydroxymethyl)-tetrahydro-2H-pyran-3,4,5-triol]
Human SGLT1
  IC50: 83 nM
Human SGLT2
  IC50: 3 nM

## [2H]C1([2H])Cc2ccc(Cc3cc([C@@H]4O[C@H](CO)[C@@H](O)[C@H](O)[C@H]4O)c(OC)cc3C)cc21 [Compound 63, (2S,3R,4R,5S,6R)-2-(5-((2,2-dideuterium-1,2-dihydrocyclobutabenzen-4-yl)methyl)-2-methoxy-4-methylphenyl)-6-(hydroxymethyl)-tetrahydro-2H-pyran-3,4,5-triol]
Human SGLT1
  IC50: 84 nM
Human SGLT2
  IC50: 1 nM

## [2H]C1([2H])Cc2ccc(Cc3cc([C@@H]4O[C@H](CO)[C@@H](O)[C@H](O)[C@H]4O)ccc3C)cc21 [Compound 65, (2S,3R,4R,5S,6R)-2-[3-[(8,8-dideuterium)bicyclo[4.2.0]octa-1(6),2,4-trien-3-ylmethyl]-4-methylphenyl]-6-(hydroxymethyl)oxane-3,4,5-triol]
Human SGLT1
  IC50: 24 nM
Human SGLT2
  IC50: 3 nM

## [2H]C1([2H])Cc2ccc(Cc3cc([C@@H]4O[C@H](CO)[C@@H](O)[C@H](O)[C@H]4O)ccc3CC)cc21 [Compound 66, (2S,3R,4R,5S,6R)-2-(3-((2,2-dideuterium-1,2-dihydrocyclobutabenzen-4-yl)methyl)-4-ethylphenyl)-6-(hydroxymethyl)-tetrahydro-2H-pyran-3,4,5-triol]
Human SGLT1
  IC50: 32 nM
Human SGLT2
  IC50: 3 nM

## [2H]C1([2H])Cc2ccc(Cc3cc([C@@H]4O[C@H](CO)[C@@H](O)[C@H](O)[C@H]4O)c(OC)cc3Cl)cc21 [Compound 67, (2S,3R,4R,5S,6R)-2-(5-{[(8,8-dideuterium)bicyclo[4.2.0]octa-1(6),2,4-trien-3-yl]methyl}-4-chloro-2-methoxyphenyl)-6-(hydroxymethyl)oxane-3,4,5-triol]
Human SGLT1
  IC50: 48 nM
Human SGLT2
  IC50: 2 nM

## [2H]C1([2H])Cc2ccc(Cc3cc([C@@H]4O[C@H](CO)[C@@H](O)[C@H](O)[C@H]4O)c(OC)cc3CC)cc21 [Compound 69, (2S,3R,4R,5S,6R)-2-(5-[(8,8-Hz)bicyclo[4.2.0]octa-1(6),2,4-trien-3-ylmethyl]-4-ethyl-2-methoxyphenyl)-6-(hydroxymethyl)oxane-3,4,5-triol]
Human SGLT1
  IC50: 50 nM
Human SGLT2
  IC50: 5 nM

## [2H]C1([2H])Cc2ccc(Cc3cc([C@@H]4O[C@H](CO)[C@@H](O)[C@H](O)[C@H]4O)c(F)cc3C)cc21 [Compound 70, (2S,3R,4R,5S,6R)-2-(5-{[(8,8-dideuterium)bicyclo[4.2.0]octa-1(6),2,4-trien-3-yl]methyl}-2-fluoro-4-methylphenyl)-6-(hydroxymethyl)oxane-3,4,5-triol]
Human SGLT1; at 0.3 μM
  inhibition at 0.3 µM: 85%
Human SGLT2; at 0.03 μM
  inhibition at 0.03 µM: 35%

## [2H]C1([2H])Cc2ccc(Cc3cc([C@@H]4O[C@H](CO)[C@@H](O)[C@H](O)[C@H]4O)c(F)cc3Cl)cc21 [Compound 71, (2S,3R,4R,5S,6R)-2-{5-[(8,8-dideuterium)bicyclo[4.2.0]octa-1(6),2,4-trien-3-ylmethyl]-4-chloro-2-fluorophenyl}-6-(hydroxymethyl)oxane-3,4,5-triol]
Human SGLT1
  IC50: 71 nM
Human SGLT2
  IC50: 3 nM

## [2H]C1([2H])Cc2ccc(Cc3cc([C@@H]4O[C@H](CO)[C@@H](O)[C@H](O)[C@H]4O)c(F)cc3OC)cc21 [Compound 72, (2S,3R,4R,5S,6R)-2-{5-[(8,8-dideuterio)bicyclo[4.2.0]octa-1(6),2,4-trien-3-ylmethyl]-2-fluoro-4-methoxyphenyl}-6-(hydroxymethyl)oxane-3,4,5-triol]
Human SGLT1
  IC50: 24 nM
Human SGLT2
  IC50: 3 nM

## [2H]C1([2H])Cc2ccc(Cc3cc([C@@H]4O[C@H](CO)[C@@H](O)[C@H](O)[C@H]4O)c(F)cc3CC)cc21 [Compound 73, (2S,3R,4R,5S,6R)-2-(5-((2,2-dideuterium-1,2-dihydrocyclobutabenzen-4-yl)methyl)-4-ethyl-2-fluorophenyl)-6-(hydroxymethyl)-tetrahydro-2H-pyran-3,4,5-triol]
Human SGLT1
  IC50: 16 nM
Human SGLT2
  IC50: 3 nM

## [2H]C1([2H])Cc2ccc(Cc3cc([C@@H]4O[C@H](CO)[C@@H](O)[C@H](O)[C@H]4O)c(F)cc3C3CC3)cc21 [Compound 74, (2S,3R,4R,5S,6R)-2-(4-cyclopropyl-5-((2,2-dideuterium-1,2-dihydrocyclobutabenzen-4-yl)methyl)-2-fluorophenyl)-6-(hydroxymethyl)-tetrahydro-2H-pyran-3,4,5-triol]
Human SGLT1
  IC50: 12 nM
Human SGLT2
  IC50: 10 nM

## [2H]C1([2H])Cc2cc(Cc3cc([C@@H]4O[C@H](CO)[C@@H](O)[C@H](O)[C@H]4O)c(OC)cc3Cl)ccc21 [Compound 83, (2S,3R,4R,5S,6R)-2-(5-{[(7,7-dideuterium)bicyclo[4.2.0]octa-1(6),2,4-trien-3-yl]methyl}-4-chloro-2-methoxyphenyl)-6-(hydroxymethyl)oxane-3,4,5-triol]
Human SGLT1
  IC50: 64 nM
Human SGLT2
  IC50: 1 nM

## [2H]C1([2H])Cc2cc(Cc3cc([C@@H]4O[C@H](CO)[C@@H](O)[C@H](O)[C@H]4O)ccc3C)ccc21 [Compound 85, (2S,3R,4R,5S,6R)-(3-((1,1-dideuterium-1,2-dihydrocyclobutabenzen-4-yl)methyl)-4-methylphenyl)-6-(hydroxymethyl)-tetrahydro-2H-pyran-3,4,5-triol]
Human SGLT1
  IC50: 46 nM
Human SGLT2
  IC50: 2 nM

## [2H]C1([2H])Cc2cc(Cc3cc([C@@H]4O[C@H](CO)[C@@H](O)[C@H](O)[C@H]4O)c(OC)cc3C)ccc21 [Compound 86, (2S,3R,4R,5S,6R)-2-(5-((1,1-dideuterium-1,2-dihydrocyclobutabenzen-4-yl)methyl)-2-methoxy-4-methylphenyl)-6-(hydroxymethyl)-tetrahydro-2H-pyran-3,4,5-triol]
Human SGLT1
  IC50: 68 nM
Human SGLT2
  IC50: 2 nM
